Source: PubChem BioAssay (NCI)
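Briefly, cells in 96-well plates were exposed to five compound concentrations for 48 h, and endpoints were estimated by linear interpolation. TGI denotes the concentration required for complete inhibition of growth.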

Tests used:
Assay in all cases: growth of human tumour cells (NCI), 48 h
786-0 renal = tested on: 786-0 renal
A498 renal = tested on: A498 renal
A549 NSCLC = tested on: A549 NSCLC
ACHN renal = tested on: ACHN renal
BT-549 breast = tested on: BT-549 breast
CCRF-CEM leukemia = tested on: CCRF-CEM leukemia
COLO 205 colon = tested on: COLO 205 colon
EKVX NSCLC = tested on: EKVX NSCLC
HCC-2998 colon = tested on: HCC-2998 colon
HCT-116 colon = tested on: HCT-116 colon
HCT-15 colon = tested on: HCT-15 colon
HL-60(TB) leukemia = tested on: HL-60(TB) leukemia
HOP-62 NSCLC = tested on: HOP-62 NSCLC
HOP-92 NSCLC = tested on: HOP-92 NSCLC
HS 578T breast = tested on: HS 578T breast
HT29 colon = tested on: HT29 colon
IGROV1 ovarian = tested on: IGROV1 ovarian
K-562 leukemia = tested on: K-562 leukemia
KM12 colon = tested on: KM12 colon
M14 melanoma = tested on: M14 melanoma
MALME-3M melanoma = tested on: MALME-3M melanoma
MCF7 breast = tested on: MCF7 breast
MDA-MB-231 breast = tested on: MDA-MB-231 breast
MDA-N = tested on: MDA-N
MOLT-4 leukemia = tested on: MOLT-4 leukemia
NCI-H226 lung = tested on: NCI-H226 lung
NCI-H23 lung = tested on: NCI-H23 lung
NCI-H460 lung = tested on: NCI-H460 lung
OVCAR-5 ovarian = tested on: OVCAR-5 ovarian
OVCAR-8 ovarian = tested on: OVCAR-8 ovarian
PC-3 prostate = tested on: PC-3 prostate
RPMI-8226 leukemia = tested on: RPMI-8226 leukemia
RXF 393 renal = tested on: RXF 393 renal
SK-MEL-2 melanoma = tested on: SK-MEL-2 melanoma
SK-MEL-28 melanoma = tested on: SK-MEL-28 melanoma
SK-MEL-5 melanoma = tested on: SK-MEL-5 melanoma
SN12C renal = tested on: SN12C renal
SNB-19 CNS = tested on: SNB-19 CNS
SNB-75 CNS = tested on: SNB-75 CNS
SR leukemia = tested on: SR leukemia
SW-620 colon = tested on: SW-620 colon
T-47D breast = tested on: T-47D breast
TK-10 renal = tested on: TK-10 renal
U251 CNS = tested on: U251 CNS
UACC-257 melanoma = tested on: UACC-257 melanoma
UACC-62 melanoma = tested on: UACC-62 melanoma
UO-31 renal = tested on: UO-31 renal
CAKI-1 renal = tested on: CAKI-1 renal
DU-145 prostate = tested on: DU-145 prostate
LOX IMVI melanoma = tested on: LOX IMVI melanoma
MDA-MB-435 = tested on: MDA-MB-435
NCI-H522 lung = tested on: NCI-H522 lung
NCI/ADR-RES ovarian = tested on: NCI/ADR-RES ovarian
OVCAR-3 ovarian = tested on: OVCAR-3 ovarian
OVCAR-4 ovarian = tested on: OVCAR-4 ovarian
SF-268 CNS = tested on: SF-268 CNS
SF-295 CNS = tested on: SF-295 CNS
SF-539 CNS = tested on: SF-539 CNS
SK-OV-3 ovarian = tested on: SK-OV-3 ovarian

Q: Which results are given for `Cc1ccc(N=C2SC(=S)N(CCC[N+](C)(C)C)C2=Nc2ccc(C)cc2)cc1`?
A: TGI (786-0 renal): 30.3 µM; TGI (A498 renal): 40.7 µM; TGI (A549 NSCLC): 33.8 µM; TGI (ACHN renal): 30.1 µM; TGI (BT-549 breast): 15.4 µM; TGI (CCRF-CEM leukemia): 58 µM; TGI (COLO 205 colon): 87.6 µM; TGI (EKVX NSCLC): 38.5 µM; TGI (HCC-2998 colon): 39.6 µM; TGI (HCT-116 colon): 25.4 µM; TGI (HCT-15 colon): 31.4 µM; TGI (HL-60(TB) leukemia): 5.86 µM; TGI (HOP-62 NSCLC): 52.7 µM; TGI (HOP-92 NSCLC): 31.6 µM; TGI (HS 578T breast): 24.6 µM; TGI (HT29 colon): 32.9 µM; TGI (IGROV1 ovarian): 26.6 µM; TGI (K-562 leukemia): 32.9 µM; TGI (KM12 colon): 50.1 µM; TGI (M14 melanoma): 46.1 µM; TGI (MALME-3M melanoma): 41.9 µM; TGI (MCF7 breast): 48.3 µM; TGI (MDA-MB-231 breast): 32.3 µM; TGI (MDA-N): 28.5 µM; TGI (MOLT-4 leukemia): 37.8 µM; TGI (NCI-H226 lung): 47 µM; TGI (NCI-H23 lung): 32.7 µM; TGI (NCI-H460 lung): 36.3 µM; TGI (OVCAR-5 ovarian): 29.7 µM; TGI (OVCAR-8 ovarian): 38.8 µM; TGI (PC-3 prostate): 28.3 µM; TGI (RPMI-8226 leukemia): 32 µM; TGI (RXF 393 renal): 18 µM; TGI (SK-MEL-2 melanoma): 35.9 µM; TGI (SK-MEL-28 melanoma): 23.7 µM; TGI (SK-MEL-5 melanoma): 27.5 µM; TGI (SN12C renal): 29.5 µM; TGI (SNB-19 CNS): 27.7 µM; TGI (SNB-75 CNS): 22.6 µM; TGI (SR leukemia): 27 µM; TGI (SW-620 colon): 41.4 µM; TGI (T-47D breast): 18.7 µM; TGI (TK-10 renal): 36.8 µM; TGI (U251 CNS): 26.6 µM; TGI (UACC-257 melanoma): 32 µM; TGI (UACC-62 melanoma): 22.3 µM; TGI (UO-31 renal): 37.8 µM

Q: Which results are given for `CC(=O)NNc1nc(C)c(C(=O)/C=C/C=C/c2ccccc2)s1`?
A: TGI (786-0 renal): > 100 µM; TGI (A498 renal): > 100 µM; TGI (ACHN renal): > 100 µM; TGI (BT-549 breast): > 100 µM; TGI (CAKI-1 renal): > 100 µM; TGI (CCRF-CEM leukemia): > 100 µM; TGI (COLO 205 colon): > 100 µM; TGI (DU-145 prostate): > 100 µM; TGI (EKVX NSCLC): > 100 µM; TGI (HCC-2998 colon): > 100 µM; TGI (HCT-116 colon): > 100 µM; TGI (HCT-15 colon): > 100 µM; TGI (HL-60(TB) leukemia): > 100 µM; TGI (HOP-62 NSCLC): > 100 µM; TGI (HOP-92 NSCLC): > 100 µM; TGI (HS 578T breast): > 100 µM; TGI (HT29 colon): > 100 µM; TGI (IGROV1 ovarian): > 100 µM; TGI (KM12 colon): > 100 µM; TGI (LOX IMVI melanoma): > 100 µM; TGI (M14 melanoma): > 100 µM; TGI (MALME-3M melanoma): > 100 µM; TGI (MCF7 breast): > 100 µM; TGI (MDA-MB-231 breast): > 100 µM; TGI (MDA-MB-435): > 100 µM; TGI (MDA-N): > 100 µM; TGI (MOLT-4 leukemia): > 100 µM; TGI (NCI-H226 lung): > 100 µM; TGI (NCI-H23 lung): > 100 µM; TGI (NCI-H460 lung): > 100 µM; TGI (NCI-H522 lung): > 100 µM; TGI (NCI/ADR-RES ovarian): > 100 µM; TGI (OVCAR-3 ovarian): > 100 µM; TGI (OVCAR-4 ovarian): > 100 µM; TGI (OVCAR-5 ovarian): > 100 µM; TGI (OVCAR-8 ovarian): > 100 µM; TGI (RPMI-8226 leukemia): > 100 µM; TGI (SF-268 CNS): > 100 µM; TGI (SF-295 CNS): > 100 µM; TGI (SF-539 CNS): > 100 µM; TGI (SK-MEL-28 melanoma): > 100 µM; TGI (SK-MEL-5 melanoma): > 100 µM; TGI (SK-OV-3 ovarian): > 100 µM; TGI (SN12C renal): > 100 µM; TGI (SNB-19 CNS): > 100 µM; TGI (SNB-75 CNS): > 100 µM; TGI (SR leukemia): > 100 µM; TGI (SW-620 colon): > 100 µM; TGI (T-47D breast): > 100 µM; TGI (TK-10 renal): > 100 µM; TGI (U251 CNS): > 100 µM; TGI (UACC-257 melanoma): > 100 µM; TGI (UACC-62 melanoma): > 100 µM; TGI (UO-31 renal): > 100 µM
